Assay results published in patent US20070031511A1, “Method of treatment” (priority 2003, published 2007).
Where no end group is shown, it is not given here. [ ]: non-standard residue; d: D form. pGlu = O=C1CC[C@@H](C(=O)O)N1

Legend:
[1] = system: IMGE-5 cells; experiment: IMGE-5 cell proliferation, [3H]-thymidine incorporation; format: cell-based, mice; details: for Inhibition of Ggly-stimulated IMGE-5 cell proliferation by iron chelator: [3H]-thymidine incorporation (FIG. 10); for S (%), maximum % stimulation: IMGE cells, thymidine uptake, best fit at saturating concentration; for Effect of DFO on proliferation induced by the peptide: peptide 100 nM, plus or minus 1 μM DFO, [3H]-thymidine incorporation
Description: In some cases cell proliferation was also measured by [^3H]-thymidine incorporation as described previously (Oiry et al., 2000). Briefly, IMGE-5 cells (10^5/well) were seeded in 24-well plates in medium containing 10% FBS and 1 unit/ml γ-interferon. On the next day cells were serum starved and shifted to 39° C. for 24 hr. Cells were then incubated with or without various compounds at 39° C. for 17 h in medium supplemented with 0.2% bovine serum albumin only. Cells were incubated with 0.5 μCi of [^3H] thymidine in the same medium at 39° C. for 4 h, washed twice with PBS (2.7 mM KCl, 142 mM NaCl, 1.5 mM KH2PO4, 10 mM Na2HPO4, pH 6.95) containing 0.2% bovine serum albumin and incubated at 4° C. for 30 min with 5% trichloroacetic acid. Finally cells were washed with 95% ethanol to remove unincorporated [^3H] thymidine, and lysed with 1 M NaOH. Lysates were transferred to counting vials and neutralized with 1M HCl. The radioactivity of each lysate was counted in a β-counter after the addition of 10 ml of Pico-fluor 40 solution (Packard, Meriden, Conn.).
In some experiments IMGE-5 cells were seeded in a 96-well plate at a density of 3-5×10^3 cells/well in.DMEM containing 10% FBS, and cultured at 33° C.. On the following day, the cells were serum-starved at 33° C. for 24 h. […] The cells were cultured at 39° C. for 24 h, and then harvested using a NUNC cell harvester. The amount of ^3H-thymidine incorporated through DNA synthesis was detected with a β-counter (Packard, Meriden, Conn.). […]

[2] = system: IMGE-5 cells; experiment: Wound healing / cell migration assay; format: cell-based, mice; details: wound healing assay; fragments and mutants shown at 1 nM (FIGS. 7B, 8B)
Description: (§1) The IMGE-5 cell line was established from the gastric mucosa of mice transgenic for a temperature-sensitive mutant of the SV40 large T antigen (Hollande et al, 2001). IMGE-5 cells were generally grown at 33° C. in DMEM containing 1 unit/ml γ-interferon, 10% FBS, 100 U/ml penicillin, and 100 μg/ml streptomycin (permissive conditions). For all experiments, cells were transferred to 39° C. in the same medium without […] (non-permissive conditions), where they display differentiated characteristics such as expression of functional adherens and tight junctions. All experiments have been performed on cells between passages 20 and 35.
In order to assess the effects of different stimuli on cell migration, wound healing experiments were performed as detailed elsewhere (Hollande et al, 1997). In brief, IMGE-5 cells were grown in 12-well plates in DMEM at 33° C. until they reached 80% confluence, then shifted to 39° C. and starved of serum for 24 h. The confluent monolayer was wounded using a 20 μl-pipette tip, and cells were then washed 3 times with phosphate-buffered saline (PBS: 2.7 mM KCl, 1.5 MM KH2PO4, 142 mM NaCl, and 10 mM Na2HPO4, pH 6.95) and treated with or without different compounds in DMEM with antibiotics. Morphology and migration of cells were observed and photographed immediately, and after treatment for 17 and 24 h. Wound width was measured at six different positions on the 24 h photographs, and averages calculated.

[3] = system: IMGE-5 cells; experiment: IMGE-5 cell proliferation, MTT assay; format: cell-based, mice; details: MTT assay; peptides shown at 1 nM (FIGS. 7A, 8A)
Description: as §1
A colorimetric assay was used to measure cell proliferation. Briefly, IMGE-5 cells were seeded in a 96-well plate at a density of 10^4 cells/well in DMEM containing 10% FBS and antibiotics. The following day, cells were synchronized in Go by incubation for 24 h in the same medium lacking FBS. The medium was replaced the next day with fresh medium containing 1% FBS and antibiotics and the peptides under investigation, and incubation was continued for 72 h. 15 μl of 5 mg/ml 3-(4,5-dimethylthiazol-2-yl)-2-5-diphenyltetrazolium bromide (MTT, Sigma, St Louis Mo.) was added per well, and the plate was incubated at 37° C. for 4 h before the medium was discarded. 200 μl 40 mM HCl in isopropanol was added to lyse the cells, and the absorbance at 570 nm was read on a BioRad Model 550 Microplate reader (BioRad, Hercules, Calif.).

[4] = Quenching of peptide tryptophan fluorescence by ferric ions (stoichiometry, apparent Kd); format: binding; details: 10 mM sodium acetate pH 4.0, 100 mM NaCl, 0.005% Tween 20; mean ± S.E.; read-out: Kd (μM), apparent dissociation constant for ferric ions
Description: The tryptophan fluorescence of peptide solutions was measured in 3 mL quartz cuvettes thermostated at […], with a Spex Fluorolog-2 spectrofluorimeter (Spex Industries, Edison, N.J.), with the excitation and emission wavelengths set at 290 and 345 nm, respectively. The quenching of tryptophan fluorescence induced by the binding of metal ions was used to calculate the fraction of binding sites occupied, fa: fa=(yf−y)/(yf−yb) where y is the fluorescence signal at a given concentration of metal ions and yb and yf are the signals when the binding sites are fully occupied and unoccupied, respectively (Winzor et al, 1995). The stoichiometry, p, and apparent dissociation constant, Kd, were then obtained, using the program Sigmastat (Jandel Scientific, San Rafael, Calif.), from the intercept and slope of a linear regression of the data transformed as described by Winzor and Sawyer (1995) in terms of the equation Cs/fa=pCa+Kd/(1−fa) where Cs is the total concentration of metal ions, and Ca is the total concentration of glycine-extended gastrin17. For the bismuth binding studies, the data was fitted by non-linear regression with the program Sigmaplot (Jandel Scientific, San Rafael, Calif.) to the equations for models with one binding site or two binding sites with identical affinities: fa=x/(Kd1+x) or to the model with two binding sites with different affinities: fa=(Kd1·x+Kd2·x+2x^2)/2(Kd1·Kd2+Kd1·x+Kd2·x+x^2) where x is the concentration of free metal ions, Kd1 is the first site dissociation constant and Kd2 is the second site dissociation constant. For the one-site model the value of x at any given total concentration of metal ions was obtained by exact solution of the appropriate quadratic (Malby et al, 2001). For the two-site models the value of x was obtained by an iterative Newton-Raphson procedure (Linse et al, 1991). Absorption Spectroscopy
The tryptophan fluorescence of progastrin6-80, glycine-extended gastrin17 and related peptides was measured in the presence of increasing concentrations of ferric ions in 10 mM sodium acetate, pH 4.0, 100 mM NaCl, 0.005% Tween 20. […] Values from the indicated number of independent experiments were combined to obtain the mean values (±S.E.) presented above. No binding of ferric ions to Ggly1-4 or Ggly12-18 was observed.
The tryptophan fluorescence of amidated gastrin17 and related peptides was measured in the presence of increasing concentrations of ferric ions at pH 4.0 (8). Values of the stoichiometry and the apparent dissociation constant (Kd) were obtained from linear transformations of the data presented in FIG. 20A by least squares fitting. Values from the indicated number of independent experiments were combined to obtain the mean values (±S.E.) presented above.

Compound | Stimulation of IMGE-5 cell migration [2] | Stimulation of IMGE-5 cell proliferation [3] | S (%), maximum % stimulation [1] [%] | Effect of DFO on proliferation induced by the peptide [1] | further results
Oc1c(I)cc(Cl)c2cccnc12 [clioquinol] | – | – | – | – | Inhibition of Ggly-stimulated IMGE-5 cell proliferation by iron chelator [1]: inhibited Ggly-stimulated IMGE-5 cell proliferation in a dose-dependent manner
Ggly1-4: fragment of Ggly, residues 1-4, SEQ ID NO:6 ([pGlu]GPW; listed as Homo sapiens) | Nor did they stimulate migration | neither of these fragments stimulated proliferation | – | – | –
GglyE6A: Ggly mutant, Glu6 replaced by Ala, SEQ ID NO:10 ([pGlu]GPWLAEEEEAYGWMDFG; ends and bridges not checked) | to the same extent as Ggly | to the same extent as Ggly | – | – | Kd [4]: 0.23 ± 0.02 µM
EEEEEA [Peptide E5A] | – | – | 29.1 | no significant reduction | –
Ggly12-18: C-terminal heptapeptide of Ggly, SEQ ID NO:8 (YGWMDFG; listed as Homo sapiens) | Nor did they stimulate migration | neither of these fragments stimulated proliferation | – | – | –
COc1cccc2c1C(=O)c1c(O)c3c(c(O)c1C2=O)C[C@@](O)(C(=O)CO)C[C@@H]3O[C@H]1C[C@H](N)[C@H](O)[C@H](C)O1 [doxorubicin] | – | – | – | – | Inhibition of Ggly-stimulated IMGE-5 cell proliferation by iron chelator [1]: inhibited Ggly-stimulated IMGE-5 cell proliferation in a dose-dependent manner
LEEEEE [LE5] | – | – | 29.9 | no significant reduction | –
LEEEEEA [LE5A] | – | – | 34.7 | lower in the presence of DFO, although the reduction did not reach significance | –
EEEEEAY [Peptide E5AY] | – | – | 36.1 | significantly blocked by DFO | –
EEEEE [Peptide E5] | – | – | 22.5 | no significant reduction | –
